Assay results taken from patent US8895585B2, “Nicotinamide derivative or salt thereof” (FUJIFILM Corporation, priority 2010, dated 2014).
pIC50: −log10 of the molar value.

How the values were obtained:
[1] = molecular target: T1, glutathione S-transferase (GST)-fused full-length human Syk protein (Homo sapiens, UniProt P43405); assay: Syk enzyme assay; format: biochemical; settings: Syk enzyme assay, Test Example 1; read-out: IC50 of Syk-inhibitory activity
T1 construct: (GST)-fused full-length human Syk protein; GST (glutathione S-transferase); purchased Carna Biosciences
In short: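 Baculovirus-expressed enzyme (1.2 ng) was preincubated with compound in HEPES pH 7.0/MgCl2/DTT buffer, 2 min shaking then 13 min at room temperature. Biotin-EDPDYEWPSA-NH2 (0.4 μM final) and ATP (27 μM final) were added for 40 min at room temperature. EDTA stop, streptavidin-XL/PT66-K TR-FRET at 615/665 nm gave IC50.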

THP-1 cells = assay: TNFα generation assay; format: cell-based, human; settings: Homo sapiens, THP-1, THP-1 cells; Table 22; read-out: IC50 in TNFα generation assay
In short: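 THP-1 cells differentiated to macrophage-like cells with 10 ng/ml IFN-γ for 2 days, preincubated with compound 30 min at room temperature, then cultured 7 h on plates coated with human IgG (10 μg/ml). Secreted TNFα measured by ELISA or AlphaLISA.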

Work on `CCC[C@@H](Nc1nc(Nc2cnc3cc(OCCOC)ccc3c2)c(C(N)=O)cc1F)[C@H](C)N` [Example 006-238, 6-(((2S,3R)-2-aminohexan-3-yl)amino)-5-fluoro-2-((7-(2-methoxyethoxy)quinolin-3-yl)amino)nicotinamide] yielded a pIC50 [1] greater than 8.00 and a pIC50 (THP-1 cells) greater than 7.19.

`CCC[C@@H](Nc1nc(Nc2ccc3c(OC)nccc3c2)c(C(N)=O)cc1F)[C@H](C)N` [Example 006-239, 6-(((2S,3R)-2-aminohexan-3-yl)amino)-5-fluoro-2-((1-methoxyisoquinolin-6-yl)amino)nicotinamide] gave a pIC50 [1] greater than 8.00 and a pIC50 (THP-1 cells) greater than 7.19.

`CCC[C@@H](Nc1nc(Nc2ccc3nccnc3c2)c(C(N)=O)cc1F)[C@H](C)N` [Example 006-240, 6-(((2S,3R)-2-aminohexan-3-yl)amino)-5-fluoro-2-((quinoxalin-6-yl)amino)nicotinamide] was tested, and the pIC50 [1] was greater than 8.00 and the pIC50 (THP-1 cells) was greater than 7.19.

In the case of `CCC[C@@H](Nc1nc(Nc2cncc3ccccc23)c(C(N)=O)cc1F)[C@H](C)N` [Example 006-241, 6-(((2S,3R)-2-aminohexan-3-yl)amino)-5-fluoro-2-((isoquinolin-4-yl)amino)nicotinamide], the pIC50 [1] was greater than 8.00 and the pIC50 (THP-1 cells) was 6.89 to 7.19.

`CCC[C@@H](Nc1nc(Nc2cnc3ccc(OC)cc3c2)c(C(N)=O)cc1F)[C@H](C)N` [Example 006-242, 6-(((2S,3R)-2-aminohexan-3-yl)amino)-5-fluoro-2-((6-methoxyquinolin-3-yl)amino)nicotinamide] showed a pIC50 [1] greater than 8.00 and a pIC50 (THP-1 cells) of 6.89 to 7.19.

Work on `CCC[C@@H](Nc1nc(Nc2ccc3cccnc3c2)c(C(N)=O)cc1F)[C@H](C)N` [Example 006-244, 6-(((2S,3R)-2-aminohexan-3-yl)amino)-5-fluoro-2-((quinolin-7-yl)amino)nicotinamide] yielded a pIC50 [1] greater than 8.00 and a pIC50 (THP-1 cells) of 6.89 to 7.19.

`CCC[C@@H](Nc1nc(Nc2ccc3nc(C)cnc3c2)c(C(N)=O)cc1F)[C@H](C)N` [Example 006-245, 6-(((2S,3R)-2-aminohexan-3-yl)amino)-5-fluoro-2-((2-methylquinoxalin-6-yl)amino)nicotinamide] showed a pIC50 [1] greater than 8.00 and a pIC50 (THP-1 cells) of 6.89 to 7.19.

Compound `CCC[C@@H](Nc1nc(Nc2cncc(-c3ccccc3)c2)c(C(N)=O)cc1F)[C@H](C)N` [Example 006-247, 6-(((2S,3R)-2-aminohexan-3-yl)amino)-5-fluoro-2-((5-phenylpyridin-3-yl)amino)nicotinamide] has a pIC50 [1] greater than 8.00 and a pIC50 (THP-1 cells) of 6.70 to 6.89.

In the case of `CCC[C@@H](Nc1nc(Nc2cc(OC)nc(OC)c2)c(C(N)=O)cc1F)[C@H](C)N` [Example 006-248, 6-(((2S,3R)-2-aminohexan-3-yl)amino)-2-((2,6-dimethoxypyridin-4-yl)amino)-5-fluoronicotinamide], the pIC50 [1] was greater than 8.00 and the pIC50 (THP-1 cells) was 6.89 to 7.19.

`CCC[C@@H](Nc1nc(Nc2cnc(C)c(C3CC3)c2)c(C(N)=O)cc1F)[C@H](C)N` [Example 006-250, 6-(((2S,3R)-2-aminohexan-3-yl)amino)-2-((5-cyclopropyl-6-methylpyridin-3-yl)amino)-5-fluoronicotinamide] gave a pIC50 [1] greater than 8.00 and a pIC50 (THP-1 cells) of 6.70 to 6.89.

With `CCC[C@@H](Nc1nc(Nc2cccc3c2cnn3C)c(C(N)=O)cc1F)[C@H](C)N` [Example 006-251, 6-(((2S,3R)-2-aminohexan-3-yl)amino)-5-fluoro-2-((1-methyl-1H-indazol-4-yl)amino)nicotinamide] the pIC50 [1] was greater than 8.00 and the pIC50 (THP-1 cells) was greater than 7.19.

`CCC[C@@H](Nc1nc(Nc2cnc(C)c(-n3nccn3)c2)c(C(N)=O)cc1F)[C@H](C)N` [Example 006-252, 6-(((2S,3R)-2-aminohexan-3-yl)amino)-5-fluoro-2-((6-methyl-5-(2H-1,2,3-triazol-2-yl)pyridin-3-yl)amino)nicotinamide] showed a pIC50 [1] greater than 8.00 and a pIC50 (THP-1 cells) of 6.89 to 7.19.

With `CCC[C@@H](Nc1nc(Nc2cnc(OC)c(-n3nccn3)c2)c(C(N)=O)cc1F)[C@H](C)N` [Example 006-253, 6-(((2S,3R)-2-aminohexan-3-yl)amino)-5-fluoro-2-((6-methoxy-5-(2H-1,2,3-triazol-2-yl)pyridin-3-yl)amino)nicotinamide] the pIC50 [1] was 7.30 to 8.00 and the pIC50 (THP-1 cells) was 6.70 to 6.89.
